Assay results published in US20150175556A1, “DIHYDROPYRIMIDIN-2(1H)-ONES AND DIHYDROPYRIMIDIN-2(1H)-THIONES AS INHIBITORS OF SODIUM IODIDE SYMPORTER” (COMMISSARIAT A L'ENERGIE ATOMIQUE ET AUX ENERGIES …, priority 2012, published 2015).

Tests used:
[1] = biological target: T1, sodium iodide symporter (NIS), iodide transport in FRTL5 cells (Rattus norvegicus, UniProt Q63008); details: F. Waltz et al., Anal. Biochem., 2010; read-out: IC50, competitive inhibition of iodide transport in FRTL5 cells; cited from earlier work
T1 construct: host or cells: FRTL5 (rat thyroid-derived cells), endogenous NIS
T1 sequence (Q63008 1-618): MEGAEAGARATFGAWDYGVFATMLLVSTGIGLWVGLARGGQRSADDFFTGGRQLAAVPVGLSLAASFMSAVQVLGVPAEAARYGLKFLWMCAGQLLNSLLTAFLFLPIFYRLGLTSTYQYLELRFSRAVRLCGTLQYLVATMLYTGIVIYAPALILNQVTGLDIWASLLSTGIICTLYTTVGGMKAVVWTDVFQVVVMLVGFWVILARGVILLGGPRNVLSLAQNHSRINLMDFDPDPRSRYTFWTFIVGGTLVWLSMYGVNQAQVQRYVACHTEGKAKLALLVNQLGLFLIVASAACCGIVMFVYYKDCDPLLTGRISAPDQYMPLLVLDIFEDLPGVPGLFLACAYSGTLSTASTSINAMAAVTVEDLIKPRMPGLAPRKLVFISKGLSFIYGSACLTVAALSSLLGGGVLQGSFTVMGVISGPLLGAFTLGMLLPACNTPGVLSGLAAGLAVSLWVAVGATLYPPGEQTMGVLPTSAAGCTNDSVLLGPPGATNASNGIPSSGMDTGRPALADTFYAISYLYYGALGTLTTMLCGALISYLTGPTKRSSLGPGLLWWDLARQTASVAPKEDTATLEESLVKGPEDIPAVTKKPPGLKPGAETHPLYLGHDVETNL

hNIS-HEK293 cells = biological target: T2, hNIS-HEK293 cells (Homo sapiens, UniProt Q92911); details: cited from earlier work
T2 construct: host or cells: HEK293 stably expressing human NIS
T2 sequence (Q92911 1-643): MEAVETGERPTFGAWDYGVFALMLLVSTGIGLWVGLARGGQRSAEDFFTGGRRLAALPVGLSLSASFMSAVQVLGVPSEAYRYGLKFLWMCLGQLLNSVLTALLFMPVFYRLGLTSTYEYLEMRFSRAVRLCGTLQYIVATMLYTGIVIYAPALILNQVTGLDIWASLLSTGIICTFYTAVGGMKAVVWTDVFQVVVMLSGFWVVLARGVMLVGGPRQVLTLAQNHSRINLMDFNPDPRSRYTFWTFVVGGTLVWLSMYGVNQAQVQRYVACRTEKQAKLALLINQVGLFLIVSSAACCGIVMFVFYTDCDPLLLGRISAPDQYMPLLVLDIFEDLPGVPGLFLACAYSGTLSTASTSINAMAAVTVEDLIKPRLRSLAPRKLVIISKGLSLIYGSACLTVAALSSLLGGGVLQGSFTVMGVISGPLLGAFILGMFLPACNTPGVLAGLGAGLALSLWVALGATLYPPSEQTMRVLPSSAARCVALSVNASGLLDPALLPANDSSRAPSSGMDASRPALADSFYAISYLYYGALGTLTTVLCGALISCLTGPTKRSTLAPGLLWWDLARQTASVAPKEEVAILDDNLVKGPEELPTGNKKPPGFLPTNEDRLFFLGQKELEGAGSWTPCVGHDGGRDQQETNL

[2] = concentration up to 200 μM; cited from earlier work
[3] = biological target: T3, sodium iodide symporter (NIS), iodide uptake in FRTL5 cells (Rattus norvegicus, UniProt Q63008); test: Inhibition of iodide uptake in FRTL5 cells, non radioactive arsenic/cerium assay; assay type: cell-based; details: Table 5, variations at Y, R1, R3, R4, R5; averaged from two to four independent experiments; NaI 10 μM, 1 hour, 20°C; read-out: IC50 (μM), inhibitory activity against iodide uptake in FRTL5 cells
T3 construct: endogenous in cells; host or cells: FRTL5 (rat thyroid-derived cells)
T3 sequence (Q63008 1-618): T1 sequence (Q63008 1-618)
Method: Some of the synthesized compounds were evaluated for their ability to inhibit iodide entrapment in FRTL5 cells. The IC50 values were measured in at least […] independent experiments.
The biological activity of each compound was determined in FRTL5 cells, using a non radioactive arsenic/cerium assay as described in F. Waltz et al., Anal. Biochem., 2012, 396, 91-95. Compound potency was expressed as IC50, the concentration of compound necessary to achieve 50% inhibition of iodide uptake. Briefly, to FRTL5 cells at 70-90% confluence was added compound (200 μM, 10 μM, 0.5 μM, 25 nM, 1.2 nM, 60 pM, […], and 0.15 pM final), followed by NaI (10 μM final). After 1 hour incubation at 20±1° C., supernatant was removed and the cells were immediately assayed for iodide content using the modified As/Ce Sandell-Kolthoff reaction. NaClO4 was tested in each microplate as assay controls. The IC50 values of all compounds were measured least thrice independently.
Stock solutions of tested compounds were prepared in DMSO (20 mM) and that of NaClO4 in water (20 mM). These stock solutions were stored at 4° C. for up to 2 months. Sample dilutions: the day of the assay, a daughter plate (clear flat-bottomed 96-well polystyrene microplates, Costar 9017) was prepared from 20 mM stock solutions. NaClO4 (column 2) and DHPM samples (columns 4 to 11) were diluted at 10× the final concentration in uptake buffer.
FRTL5 cells were cultured as described in F. S. Ambesi-Impiombato et al., Proc. Natl. Acad. Sci. USA, 1980, 77, 3455-3459. Briefly, FRTL5 cells were cultured in Coon's modified F12 medium supplemented with 5% heat-inactivated fetal bovine serum (Invitrogen), 2 mM L-glutamine, 100 U/mL penicillin, 0.1 mg/mL streptomycin, 10 μg/mL insulin, 10 nM hydrocortisone, 10 ng/mL Gly-His-Lys acetate, 1 mU/mL TSH, 5 μg/mL transferrin at 37° C. and 5% CO2. For iodide uptake assays, 200 μL of FRTL5 cells with density of 250,000 cells/mL were dispensed in each well of clear flat-bottomed 96-well polystyrene microplates (Costar 3628) using the Multidrop 384 (ThermoFisher Scientific), and further cultured until confluence reached 80-90% (3-4 days).
The culture medium of FRTL5 monolayer cells at 80-90% confluence was replaced by uptake buffer (20° C.) via continuous aspiration/dispense cycle (600 μL) using a 96-needle head plate washer PW 384 (Tecan). The 96-needle head was set to a vertical position such that 80 μL of fresh uptake buffer remained in each well at the end of the cycle. The samples (10 μL each) from the daughter plate were transferred all at once to the assay plate using the 96-tip head pipettor Liquidator 96 (Mettler Toledo). Immediately after, 10 μL of a NaI solution at 100 μM was added to each well of the assay plate using the Liquidator 96. The assay plate was left to stand in the dark at 20±1° C. for 60 min. The assay plate was then washed with cold (4° C.) uptake buffer using the PW 384 plate washer and residual supernatant was immediately discarded by inverting the assay plate on absorbent paper.
Sodium iodide standards (S1 to S7) and water (S0) were distributed in duplicate (100 μL each) in the first and last column of the assay plate. Water (100 μL) was added to the columns with the Multidrop 384. 100 μL of the ammonium cerium (IV) sulfate solution (10.5 mM) was distributed into the columns, followed by 100 μL of the sodium arsenite (III) solution (24 mM) using the Multidrop 384. The assay plate was left to stand at 20±1° C. for 30 min. The absorbance at 420 nm (Abs420) was immediately recorded on a SpectraMax Plus 384 (Molecular Devices). A calibration curve was prepared for each plate by plotting the logarithmic conversion of the means of Abs420 (n=2) vs iodide standard concentrations (S0 to S7). The iodide concentrations in the samples were determined after linear regression of the calibration curve.

[4] = biological target: T4, iodide transport in rat thyroid-derived cell lines (FRTL5) (Rattus norvegicus, UniProt Q63008); details: reported in literature (N. Lecat-Guillet et al., 2008); read-out: IC50, iodide uptake in FRTL5 cells; cited from earlier work
T4 construct: host or cells: FRTL5 (rat thyroid-derived cells), endogenous NIS
T4 sequence (Q63008 1-618): T1 sequence (Q63008 1-618)

melting point | SMILES | IC50 [1] | further results
– | F[B-](F)(F)F [BE4^−] | 750 nM | –
– | [O-][Cl+3]([O-])([O-])O [ClO4^−] | 140 nM | –
162 to 164 °C | COc1ccc(COC(=O)C2=C(C)NC(=O)NC2c2ccccc2)cc1 (stereo not drawn) [Compound 1, 4-methoxybenzyl 6-methyl-2-oxo-4-phenyl-1,2,3,4-tetrahydropyrimidine-5-carboxylate] | – | Efflux of iodide from preloaded hNIS-HEK293 cells (hNIS-HEK293 cells): can trigger a rapid efflux of iodide; Cytotoxicity [2]: not found cytotoxic
172 to 173 °C | CC1=C(C(=O)OCc2ccc3c(c2)OCO3)C(c2ccoc2)NC(=O)N1 (stereo not drawn) [Compound 62, Benzo[d][1,3]dioxol-5-ylmethyl 4-(furan-3-yl)-6-methyl-2-oxo-1,2,3,4-tetrahydropyrimidine-5-carboxylate] | – | IC50 [3]: 0.037 µM
235 to 237 °C | CC1=C(C(=O)NCc2ccc3c(c2)OCO3)C(c2ccccc2)NC(=O)N1 (stereo not drawn) [Compound 63, N-(benzo[d][1,3]dioxol-5-ylmethyl) 6-methyl-2-oxo-4-phenyl-1,2,3,4-tetrahydropyrimidine-5-carboxamide] | – | IC50 [3]: 0.078 µM
– | F[B-](F)(F)c1ccc(OCc2ccccc2)cc1 [ITB11] | – | IC50 [4]: 400 nM
– | O=[N+]([O-])O [NO3^−] | 250000 nM | –
– | F[P-](F)(F)(F)(F)F [PF6^−] | 9 nM | –
